The test system of the test is CEM cells HIV-1 protection, formazan growth assay. The test is described as follows: NCI AIDS Antiviral Assay. As to conditions: for IC50: measured here: growth of uninfected CEM cells. The procedure, abridged:
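Steps: treat uninfected and HIV-1-infected human CEM cells at five drug levels; quantify growth by soluble formazan; retest any compound reaching 50% protection; classify actives from the retest.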

Structures are written as SMILES. Where “and” joins values, the source holds several entries; their conditions need not be identical. Identical values can stand only once. Calls of active or inactive are those of the source.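 Rule for the calls: active = compounds giving half or more protection of infected cells from virus-caused growth loss, again on retest; inactive = the rest.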 Where a SMILES comes first, the peptide text is derived from it. The star is where a group is joined. Boc = CC(C)(C)OC(=O)*

Consider `O=C1OCC2(CO)SC(c3ccccc3)NC12` (stereo not drawn), for which the EC50 was greater than 525 µM and the IC50 was greater than 525 µM.
As for `CCOCC(=O)N(C)c1cccc2c3c(n(C)c12)CCCCC3`, the outcome was inactive.
On to `CN(C)c1ccc(SSc2ccc(N(C)C)cc2)cc1`, for which the EC50 was greater than 200 µM and the IC50 came to 14.1 µM.
On the same counts, the results for `Cc1ccc(C2=Nn3c(nc4sc(C)c(C)c4c3=O)SC2)cc1` are greater than 200 µM and greater than 200 µM.
Take `CCOC(=O)[C@H]1Nc2ccc(O)cc2C2c3ccccc3CC21` (stereo partly drawn): the EC50 was greater than 302 µM and the 50% inhibitory concentration (IC50) is 56.2 µM.
On the same counts, the results for `CC(C)(C)OC(=O)NC(Cc1ccccc1)C(=O)N1CCCC1C(N)=O` (stereo not drawn) (Boc-Phe-Pro-NH2; configuration not given here) are greater than 200 µM and greater than 200 µM.
On the same counts, the results for `CC(C)(Cc1ccccc1)NC1=NCCO1` are greater than 200 µM and greater than 200 µM.
Consider `O=S(=O)(O)c1ccc(N=Nc2ccc(S(=O)(=O)O)cc2)cc1`, for which the result was inactive.
As to `Cc1nn(C(=O)c2ccccc2O)c2c1C(c1ccccc1)SC(N)=N2` (stereo not drawn), the EC50 was greater than 2 µM and the 50% inhibitory concentration (IC50) amounted to 0.417 µM.
In the case of `COP1(=O)OCc2cnccc2O1` (stereo not drawn), the EC50 is greater than 200 µM and the IC50 was greater than 200 µM.
With `CCCCCCNC(=S)N/N=C(\C)c1ccccn1`, the EC50 was greater than 0.2 µM and the concentration for half-maximal inhibition (IC50) worked out at 0.0324 µM.
Take `N#CC(C#N)=C1SCC(=O)CS1`: the result was inactive.
On the same count and under the same terms, the value for `COC(=O)[C@@H]1C[C@H]([Se]c2ccccc2)CN1S(=O)(=O)c1ccc(C)cc1` was “inactive”.
With `O=c1c(F)cn(Cc2c(Cl)cccc2Cl)c(=O)n1Cc1c(Cl)cccc1Cl`, the EC50 is greater than 200 µM and the half-inhibitory concentration (IC50) stood at 47.9 µM.
On the same counts, the results for `COc1cccc(/C=C\c2ccc(O)cc2)c1` are greater than 200 µM and 4.27 µM.
On the same counts, the results for `C=C1C(=O)[C@@]23C(O)C[C@@H]4C(C)(C)CCC(O)C4(COC(C)=O)[C@@H]2CC[C@@H]1[C@H]3O` (stereo partly drawn) are greater than 631 µM and 0.372 µM.
Taken in the same sequence, the figures for `CC1=NN(c2ccccc2)C(=O)C1N=Nc1ccc(S(=O)(=O)Nc2ncccn2)cc1` (stereo not drawn) were greater than 200 µM and 36.3 µM.
`CCC1Sc2cc(OC)cc([N+](=O)[O-])c2NC1=O` (stereo not drawn): the EC50 is greater than 200 µM and the half-maximal inhibitory concentration (IC50) was greater than 200 µM.
As to `C(=C(Sc1ccccc1)Sc1ccccc1)C(Sc1ccccc1)c1ccccc1` (stereo not drawn), the EC50 was greater than 200 µM and the IC50 was greater than 200 µM.
Consider `CCCSCC(P(=O)(O)O)P(=O)(O)O`, for which the outcome was inactive.
For the compound `O=C1/C(=C\c2cccc(Oc3ccccc3)c2)SC(c2ccccc2)N1c1ccccc1` (stereo not drawn), the EC50 is greater than 20 µM and the IC50 was determined as 0.0933 µM.
Taken in the same sequence, the figures for `Nc1cc(-c2ccccc2)nn1-c1nsc2ccccc12` were greater than 17.8 µM and greater than 17.8 µM.
Taken in the same sequence, the figures for `COC(=O)/C(C#N)=C\n1c(=S)[nH]c2ccccc21` were greater than 200 µM and greater than 200 µM.
Taken in the same sequence, the figures for `CC1=C2C(=CO[C@H](C)[C@H]2C)C(=O)C(C(=O)O)=C1O` were greater than 145 µM and 25.1 µM.
In the case of `C=Cc1ccc(C)[n+](C[Si](C)(C)O[Si](C)(C)C[n+]2cc(C=C)ccc2C)c1`, the EC50 is greater than 380 µM and the IC50 was determined as 245 µM.
Consider `Cc1ccc(-c2c(C#N)c(-c3ccc(C)cc3)n(NS(=O)(=O)c3ccccc3)c(=O)c2C#N)cc1`, for which the EC50 is greater than 200 µM and the IC50 worked out at 22.9 µM.
In the case of `C[N+]12CN3CN(C1)S(=O)(=O)N(C3)C2`, the outcome was inactive.
For `OCC12COC(c3ccccc3)N1C(c1ccccc1)OC2` (stereo not drawn), the EC50 is greater than 200 µM and the IC50 was 11.2 µM.
Consider `CCc1cccc(C)c1NC(=O)C(=O)Cc1nc2ccccc2o1`, for which the EC50 was greater than 22.4 µM and the IC50 was greater than 22.4 µM.
Regarding `CC(=O)Nc1c(Nc2ccc3c(=O)[nH]ccc3c2C)cc[nH]c1=O`, the EC50 was greater than 398 µM and the 50% inhibitory concentration (IC50) was 191 µM.
On the same counts, the results for `Nc1ncnc2c1nnn2C1C=CC(CP(=O)(O)O)C1` (stereo not drawn) are greater than 200 µM and greater than 200 µM.
On the same counts, the results for `Cc1ccc(CCNC(=S)SCC(NC(=O)CCC(N)C(=O)O)C(=O)NCC(=O)O)cc1` (stereo not drawn) are greater than 102 µM and 8.71 µM.
As for `CN(CC(=O)O)S(=O)(=O)c1ccc2ccccc2c1`, the result was inactive.
Consider `CC12CC(OC1=O)C(=O)c1ccccc12` (stereo not drawn), for which the EC50 is greater than 468 µM and the IC50 is 209 µM.
Taken in the same sequence, the figures for `Cc1cc(O)c2c(c1)C(=O)C=C(Br)C2=O` were greater than 100 µM and 1.58 µM.
On the same counts, the results for `NC(=O)c1nnsc1NN=O` are greater than 200 µM and greater than 200 µM.
Taken in the same sequence, the figures for `C/C(=C\c1ccccc1)n1c(=O)cc(C)n1C` were greater than 200 µM and greater than 200 µM.
On to `Cc1ccc(S(=O)(=O)Nn2c(S)c(C#N)c(-c3ccc(N(C)C)cc3)c(C#N)c2=O)cc1`, for which the EC50 is greater than 200 µM and the IC50 is 7.76 µM.
Take `CSC(SC)=C(C#N)C(=O)Nc1ccc(C)cc1`: the EC50 is greater than 200 µM and the IC50 came to 3.63 µM.
On the same counts, the results for `CN=c1sc2c(n1C)C(=O)c1ccccc1C2=O` are greater than 200 µM and 9.33 µM.
On the same counts, the results for `COc1cccc(N2C(=O)C3c4[nH]c5ccccc5c4C4c5ccccc5CCC4C3C2=O)c1` (stereo not drawn) are greater than 100 µM and greater than 100 µM.
On the same counts, the results for `CC(C)CC1C(=O)OC(C)(C)OC1=O` are greater than 200 µM and greater than 200 µM.
With `CN1CC2=C(NC(=S)NC2c2ccc(Cl)cc2)/C(=C/c2ccc(Cl)cc2)C1` (stereo not drawn), the EC50 is greater than 200 µM and the IC50 turned out to be 33.9 µM.
With `O=c1ccc2ccc(O)c3c4c(=O)ccc5ccc(O)c(c1c23)c54`, the result was inactive.
Take `O=C1CCC2(CC1)Cc1ccccc1C2O` (stereo not drawn): the EC50 was greater than 200 µM and the IC50 was greater than 200 µM.
As for `COc1nc2c(c(=O)[nH]1)N=C(c1ccc([N+](=O)[O-])cc1)CC(c1ccccc1)N2` (stereo not drawn), the EC50 was greater than 200 µM and the IC50 was 46.8 µM.
Taken in the same sequence, the figures for `Cc1cccc(C(=O)NCCN(C)C)c1[N+](=O)[O-]` were greater than 200 µM and greater than 200 µM.
On the same counts, the results for `CN1CCN=C1c1ccc(NC(=O)c2ccc(C(=O)Nc3ccc(C4=NCCN4C)cc3)cc2)cc1` are greater than 200 µM and 74.1 µM.
Turning to `Cc1nc(-[n+]2nc(-c3ccncc3)nn2-c2ccccc2)sc1C`, the EC50 was greater than 200 µM and the 50% inhibitory concentration (IC50) is 17 µM.
As for `O=C1c2cccc3cc([N+](=O)[O-])cc(c23)C(=O)N1Cc1cccnc1`, the result was inactive.
As for `O=C(Cn1c(=O)oc2ccc(C(=O)c3ccc(F)cc3)cc21)c1ccccc1`, the EC50 was greater than 200 µM and the concentration for half-maximal inhibition (IC50) amounted to 123 µM.
Regarding `COc1ccc2oc(=O)c(CC=C(C)C)c(O)c2c1C`, the EC50 was greater than 200 µM and the concentration for half-maximal inhibition (IC50) is greater than 100 µM.
On the same counts, the results for `O=C(NC(=O)c1ccccc1)NC(=O)c1ccccc1` are greater than 135 µM and greater than 135 µM.
On the same counts, the results for `CCOC(=O)C(=Cc1ccc(N(C)C)cc1)C(=O)OCC` are greater than 89.1 µM and 46.8 µM.
On the same counts, the results for `CC(C)(C)OC(=O)N[C@H]1CCN(C2CCCCC2)C1=O` are greater than 200 µM and greater than 200 µM.
On to `O=C(O)C(C(C(=O)O)P(=O)(O)O)P(=O)(O)O` (stereo not drawn), for which the EC50 was greater than 200 µM and the 50% inhibitory concentration (IC50) is greater than 200 µM.
Turning to `COc1c(Cl)cc(S(=O)O)cc1Cl`, the outcome was inactive.
As to `CNC(=O)CNC(=O)N(C[C@@H]1CCCN1C(=O)[C@H](CC(C)C)NC(=O)OC(C)(C)C)C(C)C`, the EC50 was greater than 200 µM and the IC50 was greater than 200 µM.
With `[Pt].c1ccc([PH+](CC[PH+](CC[PH+](c2ccccc2)c2ccccc2)c2ccccc2)CC[PH+](c2ccccc2)c2ccccc2)cc1` (stereo not drawn), the EC50 was greater than 15.8 µM and the IC50 was 12.6 µM.
On the same counts, the results for `Cc1c2ccccc2nc(CSc2ccc(Cl)cc2)[n+]1[O-]` are 45.7 µM and 105 µM.
Taken in the same sequence, the figures for `O=C(Cc1nc2ccc([N+](=O)[O-])cc2[nH]c1=O)C(=O)Nc1cc(Cl)c(Cl)cc1Cl` were greater than 29.5 µM and 11.2 µM.
Turning to `O=C1NC2(CCCCC2)C2=C1CCCCC2`, the result was inactive.
Same read-out and setting: the value for `CCOC(=O)C1Cc2ccc3c4c(ccc(c24)C1)CC(C(=O)OCC)C3` was “inactive”.
Turning to `CC1(CC(O)(C(F)(F)F)C(F)(F)F)NC(=O)NC1=O` (stereo not drawn), the EC50 is greater than 200 µM and the 50% inhibitory concentration (IC50) was greater than 200 µM.
With `N#Cc1c2c(c(N=[N+]=[N-])n3c1nc1ccccc13)CCCC2`, the EC50 was greater than 4.68 µM and the half-inhibitory concentration (IC50) is greater than 4.68 µM.
With `C=CCN=C1N=C(C)C(C(=O)OCC)S1` (stereo not drawn), the EC50 was greater than 30.2 µM and the half-maximal inhibitory concentration (IC50) worked out at 17.8 µM.
For `CCOC(=O)/C(=C\c1cccc(F)c1)C(C)=O`, the EC50 is greater than 398 µM and the IC50 turned out to be 182 µM.
On the same counts, the results for `N#C/C(=C\c1ccc(-c2ccccc2)cc1)c1ccc([N+](=O)[O-])cc1` are greater than 200 µM and greater than 200 µM.
Taken in the same sequence, the figures for `CC(=O)Nc1ccc(C2C(C(=O)Nc3ccccc3C)=C(C)NC(C)=C2C(=O)Nc2ccccc2C)cc1` were greater than 70.8 µM and greater than 70.8 µM.
On the same counts, the results for `C/C=C/CSc1cc(NC(=S)c2ccsc2C)ccc1Cl` are 0.263 µM and 12.3 µM.
Turning to `Clc1ccc2c(c1)[nH]c1c2nc2ccccn21`, the EC50 was greater than 30.2 µM; the half-inhibitory concentration (IC50) is 29.5 µM and > 25.7 µM.
In the case of `CC1(C)OCC2OC3([C@@H]4OC(C)(C)O[C@H]4CO)OC(C)(C)OC3C2O1` (stereo partly drawn), the EC50 is greater than 200 µM and the half-maximal inhibitory concentration (IC50) was greater than 200 µM.
As for `CC1(C)OC[C@H](COCOP2(=O)Oc3ccc4ccccc4c3-c3c(ccc4ccccc34)O2)O1`, the EC50 is greater than 200 µM and the IC50 was 34.7 µM.
Taken in the same sequence, the figures for `COC(=O)C1(O)CC(=O)CCC1c1ccccc1` (stereo not drawn) were greater than 355 µM and greater than 355 µM.
For the compound `O=S(=O)(O)SCc1ccccc1CSS(=O)(=O)O`, the EC50 was greater than 200 µM and the IC50 was greater than 200 µM.

Broadly, the EC50 is the midpoint of the concentration-response curve. The term IC50 denotes the concentration at which inhibition is half-maximal. High values mean weaker potency, low ones greater potency.

These data come from PubChem BioAssay AID179 (DTP/NCI, 2004).
